# Assay results from PubChem BioAssay (NCI).
#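 How tested: cells in 96-well plates exposed to compound for 48 hours at five concentrations. At the TGI there is no net growth.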
# Legend:
# Assay in all cases: DTP human tumour cell line panel, 48 h
# 786-0 renal = tested on: 786-0 renal
# A498 renal = tested on: A498 renal
# A549 NSCLC = tested on: A549 NSCLC
# ACHN renal = tested on: ACHN renal
# BT-549 breast = tested on: BT-549 breast
# CAKI-1 renal = tested on: CAKI-1 renal
# CCRF-CEM leukemia = tested on: CCRF-CEM leukemia
# COLO 205 colon = tested on: COLO 205 colon
# DU-145 prostate = tested on: DU-145 prostate
# EKVX NSCLC = tested on: EKVX NSCLC
# HCC-2998 colon = tested on: HCC-2998 colon
# HCT-116 colon = tested on: HCT-116 colon
# HCT-15 colon = tested on: HCT-15 colon
# HL-60(TB) leukemia = tested on: HL-60(TB) leukemia
# HOP-62 NSCLC = tested on: HOP-62 NSCLC
# HOP-92 NSCLC = tested on: HOP-92 NSCLC
# HS 578T breast = tested on: HS 578T breast
# HT29 colon = tested on: HT29 colon
# IGROV1 ovarian = tested on: IGROV1 ovarian
# K-562 leukemia = tested on: K-562 leukemia
# KM12 colon = tested on: KM12 colon
# LOX IMVI melanoma = tested on: LOX IMVI melanoma
# M14 melanoma = tested on: M14 melanoma
# MALME-3M melanoma = tested on: MALME-3M melanoma
# MCF7 breast = tested on: MCF7 breast
# MDA-MB-231 breast = tested on: MDA-MB-231 breast
# MDA-MB-435 = tested on: MDA-MB-435
# MDA-N = tested on: MDA-N
# MOLT-4 leukemia = tested on: MOLT-4 leukemia
# NCI-H226 lung = tested on: NCI-H226 lung
# NCI-H23 lung = tested on: NCI-H23 lung
# NCI-H460 lung = tested on: NCI-H460 lung
# NCI-H522 lung = tested on: NCI-H522 lung
# NCI/ADR-RES ovarian = tested on: NCI/ADR-RES ovarian
# OVCAR-3 ovarian = tested on: OVCAR-3 ovarian
# OVCAR-4 ovarian = tested on: OVCAR-4 ovarian
# OVCAR-5 ovarian = tested on: OVCAR-5 ovarian
# OVCAR-8 ovarian = tested on: OVCAR-8 ovarian
# PC-3 prostate = tested on: PC-3 prostate
# RPMI-8226 leukemia = tested on: RPMI-8226 leukemia
# RXF 393 renal = tested on: RXF 393 renal
# SF-268 CNS = tested on: SF-268 CNS
# SF-295 CNS = tested on: SF-295 CNS
# SF-539 CNS = tested on: SF-539 CNS
# SK-MEL-28 melanoma = tested on: SK-MEL-28 melanoma
# SK-MEL-5 melanoma = tested on: SK-MEL-5 melanoma
# SN12C renal = tested on: SN12C renal
# SNB-19 CNS = tested on: SNB-19 CNS
# SNB-75 CNS = tested on: SNB-75 CNS
# SR leukemia = tested on: SR leukemia
# SW-620 colon = tested on: SW-620 colon
# T-47D breast = tested on: T-47D breast
# TK-10 renal = tested on: TK-10 renal
# U251 CNS = tested on: U251 CNS
# UACC-257 melanoma = tested on: UACC-257 melanoma
# UO-31 renal = tested on: UO-31 renal
# SK-MEL-2 melanoma = tested on: SK-MEL-2 melanoma
# SK-OV-3 ovarian = tested on: SK-OV-3 ovarian
# UACC-62 melanoma = tested on: UACC-62 melanoma
smiles,measurement,setting,value
CC[C@@H]1CC[C@@H]2[C@H](CC[C@]3(C)[C@@H](O[N+](=O)[O-])CC[C@@H]23)[C@H]1C(C)=O,TGI,786-0 renal,> 100 µM
same,TGI,A498 renal,95.9 µM
same,TGI,A549 NSCLC,> 100 µM
same,TGI,ACHN renal,> 100 µM
same,TGI,BT-549 breast,> 100 µM
same,TGI,CAKI-1 renal,> 100 µM
same,TGI,CCRF-CEM leukemia,> 100 µM
same,TGI,COLO 205 colon,24.4 µM
same,TGI,DU-145 prostate,> 100 µM
same,TGI,EKVX NSCLC,80.9 µM
same,TGI,HCC-2998 colon,> 100 µM
same,TGI,HCT-116 colon,> 100 µM
same,TGI,HCT-15 colon,> 100 µM
same,TGI,HL-60(TB) leukemia,37 µM
same,TGI,HOP-62 NSCLC,> 100 µM
same,TGI,HOP-92 NSCLC,70.2 µM
same,TGI,HS 578T breast,> 100 µM
same,TGI,HT29 colon,33.4 µM
same,TGI,IGROV1 ovarian,> 100 µM
same,TGI,K-562 leukemia,> 100 µM
same,TGI,KM12 colon,80.7 µM
same,TGI,LOX IMVI melanoma,39.5 µM
same,TGI,M14 melanoma,> 100 µM
same,TGI,MALME-3M melanoma,65.3 µM
same,TGI,MCF7 breast,83.1 µM
same,TGI,MDA-MB-231 breast,75.1 µM
same,TGI,MDA-MB-435,> 100 µM
same,TGI,MDA-N,> 100 µM
same,TGI,MOLT-4 leukemia,> 100 µM
same,TGI,NCI-H226 lung,> 100 µM
same,TGI,NCI-H23 lung,> 100 µM
same,TGI,NCI-H460 lung,76 µM
same,TGI,NCI-H522 lung,80.9 µM
same,TGI,NCI/ADR-RES ovarian,> 100 µM
same,TGI,OVCAR-3 ovarian,> 100 µM
same,TGI,OVCAR-4 ovarian,> 100 µM
same,TGI,OVCAR-5 ovarian,> 100 µM
same,TGI,OVCAR-8 ovarian,> 100 µM
same,TGI,PC-3 prostate,74.9 µM
same,TGI,RPMI-8226 leukemia,49.9 µM
same,TGI,RXF 393 renal,> 100 µM
same,TGI,SF-268 CNS,> 100 µM
same,TGI,SF-295 CNS,> 100 µM
same,TGI,SF-539 CNS,> 100 µM
same,TGI,SK-MEL-28 melanoma,> 100 µM
same,TGI,SK-MEL-5 melanoma,40.4 µM
same,TGI,SN12C renal,> 100 µM
same,TGI,SNB-19 CNS,> 100 µM
same,TGI,SNB-75 CNS,> 100 µM
same,TGI,SR leukemia,> 100 µM
same,TGI,SW-620 colon,> 100 µM
same,TGI,T-47D breast,96.4 µM
same,TGI,TK-10 renal,> 100 µM
same,TGI,U251 CNS,> 100 µM
same,TGI,UACC-257 melanoma,55 µM
same,TGI,UO-31 renal,> 100 µM
CN(/N=C/c1ccccn1)C1=NCCN1,TGI,786-0 renal,> 100 µM
same,TGI,A498 renal,> 100 µM
same,TGI,A549 NSCLC,> 100 µM
same,TGI,ACHN renal,> 100 µM
same,TGI,BT-549 breast,> 100 µM
same,TGI,CAKI-1 renal,> 100 µM
same,TGI,CCRF-CEM leukemia,> 100 µM
same,TGI,COLO 205 colon,> 100 µM
same,TGI,EKVX NSCLC,> 100 µM
same,TGI,HCC-2998 colon,> 100 µM
same,TGI,HCT-116 colon,> 100 µM
same,TGI,HCT-15 colon,> 100 µM
same,TGI,HL-60(TB) leukemia,> 100 µM
same,TGI,HOP-62 NSCLC,> 100 µM
same,TGI,HOP-92 NSCLC,> 100 µM
same,TGI,HS 578T breast,> 100 µM
same,TGI,HT29 colon,> 100 µM
same,TGI,IGROV1 ovarian,> 100 µM
same,TGI,K-562 leukemia,> 100 µM
same,TGI,KM12 colon,> 100 µM
same,TGI,LOX IMVI melanoma,> 100 µM
same,TGI,M14 melanoma,> 100 µM
same,TGI,MALME-3M melanoma,> 100 µM
same,TGI,MCF7 breast,> 100 µM
same,TGI,MDA-MB-231 breast,> 100 µM
same,TGI,MDA-MB-435,> 100 µM
same,TGI,MDA-N,> 100 µM
same,TGI,MOLT-4 leukemia,> 100 µM
same,TGI,NCI-H226 lung,> 100 µM
same,TGI,NCI-H23 lung,> 100 µM
same,TGI,NCI-H460 lung,> 100 µM
same,TGI,NCI-H522 lung,> 100 µM
same,TGI,NCI/ADR-RES ovarian,> 100 µM
same,TGI,OVCAR-3 ovarian,> 100 µM
same,TGI,OVCAR-4 ovarian,> 100 µM
same,TGI,OVCAR-5 ovarian,> 100 µM
same,TGI,OVCAR-8 ovarian,> 100 µM
same,TGI,PC-3 prostate,> 100 µM
same,TGI,RPMI-8226 leukemia,> 100 µM
same,TGI,RXF 393 renal,> 100 µM
same,TGI,SF-268 CNS,> 100 µM
same,TGI,SF-295 CNS,> 100 µM
same,TGI,SF-539 CNS,> 100 µM
same,TGI,SK-MEL-2 melanoma,> 100 µM
same,TGI,SK-MEL-28 melanoma,> 100 µM
same,TGI,SK-MEL-5 melanoma,> 100 µM
same,TGI,SK-OV-3 ovarian,> 100 µM
same,TGI,SNB-19 CNS,> 100 µM
same,TGI,SNB-75 CNS,> 100 µM
same,TGI,SR leukemia,> 100 µM
same,TGI,SW-620 colon,> 100 µM
same,TGI,T-47D breast,> 100 µM
same,TGI,U251 CNS,> 100 µM
same,TGI,UACC-257 melanoma,> 100 µM
same,TGI,UACC-62 melanoma,> 100 µM
same,TGI,UO-31 renal,> 100 µM
